Test results published in patent US20260274892A1, “MACROCYCLIC BROAD SPECTRUM ANTIBIOTICS” (RQx Pharmaceuticals, Inc., priority 2017, published 2026).

System: Escherichia coli ATCC 25922
Experiment: Minimum inhibitory concentration (MIC), CLSI broth micro-dilution, E. coli
Type: cell-based
Details: Escherichia coli
Summary of the method: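 Colonies grown 20 h at 35° C on Trypticase Soy agar (MRSA) or Luria agar (E. coli) were suspended in cation-adjusted Mueller Hinton broth with 0.002% Tween-80. Suspensions were added at OD600 0.0005 to 10-point twofold compound dilutions, then incubated 22 h at 35° C.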

[1] = ATCC25922, Table 7, cation adjusted Mueller Hinton Broth + 0.002% Tween-80, 35° C., 22 hours
[2] = ATCC25922, Table 6, cation adjusted Mueller Hinton Broth + 0.002% Tween-80, 35° C., 22 hours
[3] = ATCC25922, 22 h, Table 6, cation adjusted Mueller Hinton Broth + 0.002% Tween-80, 35° C.
[4] = ATCC25922, 22 h, Table 7, cation adjusted Mueller Hinton Broth + 0.002% Tween-80, 35° C.

## CC(=N)NCCOc1ccc2cc1-c1cc(ccc1O)C[C@@H](C(=O)NCC#N)NC(=O)[C@H](C)NC(=O)[C@H]2N(C)C(=O)[C@H](CCN)NC(=O)c1c(C)nc(-c2ccc(C(C)(C)C)cc2)nc1C (racemic) [Compound 603, rac-(8S,11S,14S)-N-(cyanomethyl)-18-[2-(ethanimidoylamino)ethoxy]-3-hydroxy-11-methyl-14-[methyl-[rac-(2S)-4-amino-2-[[2-(4-tert-butylphenyl)-4,6-dimethyl-pyrimidine-5-carbonyl]amino]butanoyl]amino]-10,13-dioxo-9,12-diazatricyclo[13.3.1.12,6]icosa-1(18),2(20),3,5,15(19),16-hexaene-8-carboxamide]
[1]
  MIC: 0.44 µM

## CCCCCOc1ccc(-c2ncc(C(=O)N[C@@H](CCN)C(=O)N(C)[C@@H]3C(=O)N[C@@H](C)C(=O)N[C@H](C(=O)NCC#N)Cc4ccc(OCCN)c(c4)-c4cc3ccc4OCCN)c(C)n2)cc1 (racemic) [Compound 241, rac-(8S,11S,14S)-3,18-bis(2-aminoethoxy)-N-(cyanomethyl)-11-methyl-14-[methyl-[rac-(2S)-4-amino-2-[[4-methyl-2-(4-pentoxyphenyl)pyrimidine-5-carbonyl]amino]butanoyl]amino]-10,13-dioxo-9,12-diazatricyclo[13.3.1.12,6]icosa-1(18),2(20),3,5,15(19),16-hexaene-8-carboxamide]
[2]
  MIC: 0.097 µM

## Cc1nc(-c2ccc(C(C)(C)C)cc2)cc(OCC(N)=O)c1C(=O)N[C@@H](CCN)C(=O)N(C)[C@@H]1C(=O)N[C@@H](C)C(=O)N[C@H](C(=O)NCC#N)Cc2ccc(OCCN)c(c2)-c2cc1ccc2OCCN (racemic) [Compound 551, rac-(8S,11S,14S)-3,18-bis(2-aminoethoxy)-N-(cyanomethyl)-11-methyl-14-[methyl-[rac-(2S)-4-amino-2-[[4-(2-amino-2-oxo-ethoxy)-6-(4-tert-butylphenyl)-2-methyl-pyridine-3-carbonyl]amino]butanoyl]amino]-10,13-dioxo-9,12-diazatricyclo[13.3.1.12,6]icosa-1(18),2(20),3,5,15(19),16-hexaene-8-carboxamide]
[3]
  MIC: 1 µM

## Cc1nc(-c2ccc(C(C)(C)C)cc2)nc(C)c1C(=O)N[C@@H](CCN)C(=O)N(C)[C@@H]1C(=O)N[C@@H](C)C(=O)N[C@H](C(=O)NCC#N)Cc2ccc(OCCCN)c(c2)-c2cc1ccc2O (racemic) [Compound 597, rac-(8S,11S,14S)-3-(3-aminopropoxy)-N-(cyanomethyl)-18-hydroxy-11-methyl-14-[methyl-[rac-(2S)-4-amino-2-[[2-(4-tert-butylphenyl)-4,6-dimethyl-pyrimidine-5-carbonyl]amino]butanoyl]amino]-10,13-dioxo-9,12-diazatricyclo[13.3.1.12,6]icosa-1(18),2(20),3,5,15(19),16-hexaene-8-carboxamide]
[4]
  MIC: 0.26 µM

## Cc1nc(-c2ccc(C(C)(C)C)cc2)nc(C)c1C(=O)N[C@@H](CNS(N)(=O)=O)C(=O)N(C)[C@@H]1C(=O)N[C@@H](C)C(=O)N[C@H](C(=O)NCC#N)Cc2ccc(OC[C@H](O)CN)c(c2)-c2cc1ccc2OC[C@H](O)CN (racemic) [Compound 577, rac-(8S,11S,14S)-N-(cyanomethyl)-11-methyl-14-[methyl-[rac-(2S)-2-[[2-(4-tert-butylphenyl)-4,6-dimethyl-pyrimidine-5-carbonyl]amino]-3-(sulfamoylamino)propanoyl]amino]-10,13-dioxo-3,18-bis[rac-(2R)-3-amino-2-hydroxy-propoxy]-9,12-diazatricyclo[13.3.1.12,6]icosa-1(18),2(20),3,5,15(19),16-hexaene-8-carboxamide]
[4]
  MIC: 0.21 µM

## Cc1nc(-c2ccc(C(C)(C)C)cc2)nc(C)c1C(=O)N[C@@H](CCN)C(=O)N(C)[C@@H]1C(=O)N[C@@H](C)C(=O)N[C@H](C(=O)NCC#N)Cc2ccc(O)c(c2)-c2cc1ccc2OC1CNC1 (racemic) [Compound 604, rac-(8S,11S,14S)-18-(azetidin-3-yloxy)-N-(cyanomethyl)-3-hydroxy-11-methyl-14-[methyl-[rac-(2S)-4-amino-2-[[2-(4-tert-butylphenyl)-4,6-dimethyl-pyrimidine-5-carbonyl]amino]butanoyl]amino]-10,13-dioxo-9,12-diazatricyclo[13.3.1.12,6]icosa-1(18),2(20),3,5,15(19),16-hexaene-8-carboxamide]
[4]
  MIC: 0.75 µM

## Cc1nc(-c2ccc(OCCC(C)(C)C)cn2)nc(N)c1C(=O)N[C@@H](CCN)C(=O)N(C)[C@@H]1C(=O)N[C@@H](C)C(=O)N[C@H](C(=O)NCC#N)Cc2ccc(OCCN)c(c2)-c2cc1ccc2OCCN (racemic) [Compound 534, rac-(8S,11S,14S)-3,18-bis(2-aminoethoxy)-N-(cyanomethyl)-11-methyl-14-[methyl-[rac-(2S)-4-amino-2-[[4-amino-2-[5-(3,3-dimethylbutoxy)-2-pyridyl]-6-methyl-pyrimidine-5-carbonyl]amino]butanoyl]amino]-10,13-dioxo-9,12-diazatricyclo[13.3.1.12,6]icosa-1(18),2(20),3,5,15(19),16-hexaene-8-carboxamide]
[3]
  MIC: 0.5 µM

## Cc1nc(-c2ccc(C(C)(C)C)cc2)ncc1C(=O)N[C@@H](CCN)C(=O)N(C)[C@@H]1C(=O)N[C@@H](C)C(=O)N[C@H](C(=O)NCC#N)Cc2ccc(OCCN(C)C)c(c2)-c2cc1ccc2OCCN(C)C (racemic) [Compound 442, rac-(8S,11S,14S)-N-(cyanomethyl)-3,18-bis[2-(dimethylamino)ethoxy]-11-methyl-14-[methyl-[rac-(2S)-4-amino-2-[[2-(4-tert-butylphenyl)-4-methyl-pyrimidine-5-carbonyl]amino]butanoyl]amino]-10,13-dioxo-9,12-diazatricyclo[13.3.1.12,6]icosa-1(18),2(20),3,5,15(19),16-hexaene-8-carboxamide]
[2]
  MIC: 0.91 µM

## CCCCCOc1ccc(-c2nc(C)c(C(=O)N[C@@H](CCN)C(=O)N(C)[C@@H]3C(=O)N[C@@H](C)C(=O)N[C@H](C(=O)NCC#N)Cc4ccc(O)c(c4)-c4cc3ccc4OCCCN)c(C)n2)cc1 (racemic) [Compound 598, rac-(8S,11S,14S)-18-(3-aminopropoxy)-N-(cyanomethyl)-3-hydroxy-11-methyl-14-[methyl-[rac-(2S)-4-amino-2-[[4,6-dimethyl-2-(4-pentoxyphenyl)pyrimidine-5-carbonyl]amino]butanoyl]amino]-10,13-dioxo-9,12-diazatricyclo[13.3.1.12,6]icosa-1(18),2(20),3,5,15(19),16-hexaene-8-carboxamide]
[4]
  MIC: 0.094 µM

## Cc1nc(-c2ccc(C(C)(C)C)cc2)nc(C)c1C(=O)N[C@@H](CCN)C(=O)N(C)[C@@H]1C(=O)N[C@@H](C)C(=O)N[C@H](C(=O)NCC#N)Cc2cc(OCCN)c(O)c(c2)-c2cc1ccc2OCCN (racemic) [Compound 562, (4S,7S,10S)-10-((S)-4-amino-2-(2-(4-(tert-butyl)phenyl)-4,6-dimethylpyrimidine-5-carboxamido)-N-methylbutanamido)-16,25-bis(2-aminoethoxy)-N-(cyanomethyl)-26-hydroxy-7-methyl-6,9-dioxo-5,8-diaza-1,2(1,3)-dibenzenacyclodecaphane-4-carboxamide]
[1]
  MIC: 0.094 µM
